Columns and labels:
HEK293 cells [1] = assay: Preliminary screening as DNA vectors, GFP transfection of HEK293 cells; format: cell-based; conditions: HEK293 cells; lipid/DOPE liposome with 75 ng plasmid DNA (psin-EGFP-IRES-Puro); number of cells expressing GFP divided by total number of nuclei (Hoechst)
Procedure, shortened: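 Lipid + DOPE liposomes (NaOAc, pH 5.6) complexed w/ 75 ng psin-EGFP-IRES-Puro, 30 min RT; added to 3-5×10^4 HEK293/well, 37° C. Hoechst 0.2 μg/mL at 20-24 h, imaged after further 20-24 h. Efficiency = GFP+ cells / total nuclei.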

HEK293 cells [2] = assay: Preliminary screening as mRNA vectors, EGFP mRNA transfection of HEK293 cells; format: cell-based; conditions: HEK293 cells, 96-well plates, EGFP mRNA 50 ng per well; percentage of GFP fluorescent cells relative to total number of cells (Hoechst)
Procedure, shortened: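 Each well of HEK293 cells received 50 ng of EGFP mRNA. Efficiency was expressed as percent GFP-expressing cells over Hoechst-defined total cell number.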

CCCCCCCCCCCCCCCCSc1nc(NCCN2CCCCC2)nc(SCCCCCCCCCC)n1 [Compound S10S16D4]
Absolute DNA transfection efficiency in HEK293 cells (HEK293 cells [1]): 9.1% | Absolute mRNA transfection efficiency in HEK293 cells (HEK293 cells [2]): 0.8%

CCCCCCCCCCCCCCCCSc1nc(NCCN2CCN(C)CC2)nc(SCCCCCCCCCC)n1 [Compound S10S16D5]
Absolute DNA transfection efficiency in HEK293 cells (HEK293 cells [1]): 9.4% | Absolute mRNA transfection efficiency in HEK293 cells (HEK293 cells [2]): 13.6%

CCCCCCCCCCCCCCCCSc1nc(NCCCN(C)C)nc(SCCCCCCCCCC)n1 [Compound S10S16D6]
Absolute DNA transfection efficiency in HEK293 cells (HEK293 cells [1]): 14.1% | Absolute mRNA transfection efficiency in HEK293 cells (HEK293 cells [2]): 41.6%

CCCCCCCCCCCCCCCCSc1nc(NCCN(CC)CC)nc(SCCCCCCCCCC)n1 [Compound S10S16D7]
Absolute DNA transfection efficiency in HEK293 cells (HEK293 cells [1]): 3.1% | Absolute mRNA transfection efficiency in HEK293 cells (HEK293 cells [2]): 0.7%

CCCCCCCCCCCCCCCCSc1nc(NCCCN2CCOCC2)nc(SCCCCCCCCCC)n1 [Compound S10S16D8]
Absolute DNA transfection efficiency in HEK293 cells (HEK293 cells [1]): 15.7% | Absolute mRNA transfection efficiency in HEK293 cells (HEK293 cells [2]): 4.0%

CCCCCCCCCCCCCCCCSc1nc(NCCCN2CCN(C)CC2)nc(SCCCCCCCCCC)n1 [Compound S10S16D9]
Absolute DNA transfection efficiency in HEK293 cells (HEK293 cells [1]): 7.8% | Absolute mRNA transfection efficiency in HEK293 cells (HEK293 cells [2]): 19.9%

CCCCCCCCCCCCCCCCCCSc1nc(NCCN(C)C)nc(SCCCCCCCCCC)n1 [Compound S10S18D1]
Absolute DNA transfection efficiency in HEK293 cells (HEK293 cells [1]): 9.9% | Absolute mRNA transfection efficiency in HEK293 cells (HEK293 cells [2]): 3.5%

CCCCCCCCCCCCCCCCCCSc1nc(NCCN2CCOCC2)nc(SCCCCCCCCCC)n1 [Compound S10S18D2]
Absolute DNA transfection efficiency in HEK293 cells (HEK293 cells [1]): 1.6% | Absolute mRNA transfection efficiency in HEK293 cells (HEK293 cells [2]): 0.2%

CCCCCCCCCCCCCCCCCCSc1nc(NCCN2CCCC2)nc(SCCCCCCCCCC)n1 [Compound S10S18D3]
Absolute DNA transfection efficiency in HEK293 cells (HEK293 cells [1]): 11.1% | Absolute mRNA transfection efficiency in HEK293 cells (HEK293 cells [2]): 21.5%

CCCCCCCCCCCCCCCCCCSc1nc(NCCN2CCCCC2)nc(SCCCCCCCCCC)n1 [Compound S10S18D4]
Absolute DNA transfection efficiency in HEK293 cells (HEK293 cells [1]): 6.7% | Absolute mRNA transfection efficiency in HEK293 cells (HEK293 cells [2]): 6.2%

CCCCCCCCCCCCCCCCCCSc1nc(NCCN2CCN(C)CC2)nc(SCCCCCCCCCC)n1 [Compound S10S18D5]
Absolute DNA transfection efficiency in HEK293 cells (HEK293 cells [1]): 3.7% | Absolute mRNA transfection efficiency in HEK293 cells (HEK293 cells [2]): 3.5%

CCCCCCCCCCCCCCCCCCSc1nc(NCCCN(C)C)nc(SCCCCCCCCCC)n1 [Compound S10S18D6]
Absolute DNA transfection efficiency in HEK293 cells (HEK293 cells [1]): 22.4% | Absolute mRNA transfection efficiency in HEK293 cells (HEK293 cells [2]): 19.9%

CCCCCCCCCCCCCCCCCCSc1nc(NCCN(CC)CC)nc(SCCCCCCCCCC)n1 [Compound S10S18D7]
Absolute DNA transfection efficiency in HEK293 cells (HEK293 cells [1]): 9.2% | Absolute mRNA transfection efficiency in HEK293 cells (HEK293 cells [2]): 0.3%

CCCCCCCCCCCCCCCCCCSc1nc(NCCCN2CCOCC2)nc(SCCCCCCCCCC)n1 [Compound S10S18D8]
Absolute DNA transfection efficiency in HEK293 cells (HEK293 cells [1]): 13.7% | Absolute mRNA transfection efficiency in HEK293 cells (HEK293 cells [2]): 8.0%

CCCCCCCCCCCCCCCCCCSc1nc(NCCCN2CCN(C)CC2)nc(SCCCCCCCCCC)n1 [Compound S10S18D9]
Absolute DNA transfection efficiency in HEK293 cells (HEK293 cells [1]): 6.5% | Absolute mRNA transfection efficiency in HEK293 cells (HEK293 cells [2]): 2.4%

CCCCCCCCCCCCCCCCCCSc1nc(NCC2CCN(C)CC2)nc(SCCCCCCCCCC)n1 [Compound S10S18D10]
Absolute DNA transfection efficiency in HEK293 cells (HEK293 cells [1]): 43.1% | Absolute mRNA transfection efficiency in HEK293 cells (HEK293 cells [2]): 54.6%

CCCCCCCCCCCSc1nc(NCCN(C)C)nc(SCCCCCCCCCCC)n1 [Compound S11S11D1]
Absolute DNA transfection efficiency in HEK293 cells (HEK293 cells [1]): 1.3% | Absolute mRNA transfection efficiency in HEK293 cells (HEK293 cells [2]): 12.9%

CCCCCCCCCCCSc1nc(NCCN2CCOCC2)nc(SCCCCCCCCCCC)n1 [Compound S11S11D2]
Absolute DNA transfection efficiency in HEK293 cells (HEK293 cells [1]): 0.2% | Absolute mRNA transfection efficiency in HEK293 cells (HEK293 cells [2]): 0.0%

CCCCCCCCCCCSc1nc(NCCN2CCCC2)nc(SCCCCCCCCCCC)n1 [Compound S11S11D3]
Absolute DNA transfection efficiency in HEK293 cells (HEK293 cells [1]): 6.5% | Absolute mRNA transfection efficiency in HEK293 cells (HEK293 cells [2]): 3.6%

CCCCCCCCCCCSc1nc(NCCN2CCCCC2)nc(SCCCCCCCCCCC)n1 [Compound S11S11D4]
Absolute DNA transfection efficiency in HEK293 cells (HEK293 cells [1]): 4.0% | Absolute mRNA transfection efficiency in HEK293 cells (HEK293 cells [2]): 0.4%
